According to the NIST ThermoML archive (doi:10.1021/je7007022):

Test: excess molar enthalpy (molar enthalpy of mixing); xn = mol fraction of the nth substance listed
Conditions: 303.15 K, 101 kPa, Liquid, Flow calorimetry

O=CO [formic acid] + C1COCCO1
Conditions	excess molar enthalpy [kcal/mol]
x2 = 0.056	-0.0504
x2 = 0.114	-0.096
x2 = 0.225	-0.194
x2 = 0.301	-0.275
x2 = 0.383	-0.35
x2 = 0.472	-0.401
x2 = 0.58	-0.418
x2 = 0.705	-0.354
x2 = 0.762	-0.274
x2 = 0.836	-0.182
x2 = 0.917	-0.0574
